In PubChem BioAssay AID1592 (Sanford-Burnham Center for Chemical Genomics, 2009) one finds percent remaining data, which are given here for one compound.

Molecules are shown by their SMILES. Active and inactive are the calls of the source.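 How the source made its calls: active means less than 90% of the starting compound still present after 180 minutes in mouse plasma; inactive means 90% or more still present.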

The data set deals with mouse plasma stability, LC/MS/MS, 180 min. In words: mouse plasma degradation, percent remaining – biochemical, LC/MS/MS, 180 min, dry powder, ADME assay, late-stage follow-up (AID 1592). The following applies: at 1 µM; hits give low values.

`C=CCn1c(SCC(=O)c2ccc(O)c(O)c2)nnc1-c1ccccc1OC`: the percent remaining was 93.2% (inactive).
